Measurements reported in patent publication US8063225B2, “Tricyclic compound derivatives useful in the treatment of neoplastic diseases, inflammatory disorders and immunomodulatory disorders” (Chembridge Corporation, priority 2006, dated 2011).

Experiments:
[1] = tested on: CHO (chinese hamster ovary); assay: Cell proliferation inhibition, MTT assay, CHO; type: cell-based; settings: Cricetulus griseus, 72 h, CHO cells, 3-day proliferation
Source text: (§1) IGF1R and other tyrosine kinase inhibitors can inhibit the proliferation of certain cancer cell lines indicating their possible therapeutic utility for treating the corresponding cancer types. Cancer cell lines of interest and control normal lines, including CHO, HEK293, BA/F3, COLO205, PC3, DU145, MCF7, Panc1, ACHN, Hep G2, H460, K562, TT, U87-MG, CAOV-3, SK-MEL5, Karpas 299 and human multiple myeloma cell lines H929, MM1s, MM1r, UTMC2, CPM2, KMS11, My5, KMS12PE, My7, JJN3, KMS18, U266, SKMM2, RPMI-8226 are plated in white, clear-bottomed 384-well cell culture plates at 2500-5000 cells per well and supplied with dilutions of tested compounds After a desired period of time (typically 3 days), the number of viable cells is quantitated by using Cell Titer-Glo Luminescent Cell Viability Assay (Promega), a cell proliferation assay system based on detection of total amount of ATP present as a measure of cell metabolic activity. The plated cells are mixed with the Cell Titer-Glo developing reagent and counted in a luminescence multiwell plate reader according to the standard manufacturer's protocol to generate IC50 curves for cell proliferation inhibition. Results are typically reported as percent of growth (% viability =(OD72h(compound)−ODday0))/(OD72h(no compound)−ODday0). Alternatively, viable cells are quantitated by using the conventional colorimetric MTT assay. The MTT assay is based on the cleavage of the yellow tetrazolium salt MTT to purple formazan crystal by metabolic active cells. The formazan is then solubilized, and the concentration determined by optical density at 570 nm. The cells plated and incubated with a compound as described above are supplemented with the solution of MTT and incubated for 2-3 hours. The growth medium is removed and dimethyl sulfoxide is added into each well to dissolve the formazan. The absorbance is measured on an ELISA plate reader with a test wavelength of 570 nm and a background subtraction wavelength of 630 nm to obtain sample signal (OD570-OD630). […] The results are reported in terms of IC50 value for a particular compound and a cell line in the standard 3-day proliferation assay using Cell Titer-Glo. […] The results are reported in terms of IC50 value for a particular compound and a cell line in the standard 3-day proliferation assay using MTT assay.

MM1s = assay: Cell proliferation inhibition, MTT assay, MM1s; type: cell-based; settings: Homo sapiens, MM1.S, 72 h, MM1S multiple myeloma cells, 3-day proliferation
Source text: as §1

[2] = tested on: HEK293 (human normal embryonic kidney); assay: Cell proliferation inhibition, MTT assay, HEK293; type: cell-based; settings: 72 h, HEK293 cells, 3-day proliferation, read-out: HEK IC50
Source text: as §1

H929 = assay: Cell proliferation inhibition, MTT assay, H929; type: cell-based; settings: Homo sapiens, NCI-H929, 72 h, H929 multiple myeloma cells, 3-day proliferation
Source text: as §1

KMS11 = assay: Cell proliferation inhibition, MTT assay, KMS11; type: cell-based; settings: Homo sapiens, KMS-11, 72 h, KMS11 multiple myeloma cells, 3-day proliferation
Source text: as §1

CPM2 = assay: Cell proliferation inhibition, MTT assay, CPM2; type: cell-based; settings: Homo sapiens, Multiple myeloma cell, 72 h, CPM2 multiple myeloma cells, 3-day proliferation
Source text: as §1

UTMC2 = assay: Cell proliferation inhibition, MTT assay, UTMC2; type: cell-based; settings: Homo sapiens, 72 h, UTMC2 multiple myeloma cells, 3-day proliferation
Source text: as §1

MM1r = assay: Cell proliferation inhibition, MTT assay, MM1r; type: cell-based; settings: Homo sapiens, MM.1R, 72 h, MM1R multiple myeloma cells, 3-day proliferation
Source text: as §1

Jak2 = target: T1, Jak2 (Homo sapiens, UniProt O60674); assay: Tyrosine kinase assay (Kinase-Glo or AlphaScreen), Jak2; settings: biochemical tyrosine kinase assay
T1 construct: 6×His- or GST-tagged kinase domain fragments of the corresponding RTKs expressed in baculovirus system; host or cells: baculovirus system
T1 sequence (O60674 849-1124 limits assumed, species assumed): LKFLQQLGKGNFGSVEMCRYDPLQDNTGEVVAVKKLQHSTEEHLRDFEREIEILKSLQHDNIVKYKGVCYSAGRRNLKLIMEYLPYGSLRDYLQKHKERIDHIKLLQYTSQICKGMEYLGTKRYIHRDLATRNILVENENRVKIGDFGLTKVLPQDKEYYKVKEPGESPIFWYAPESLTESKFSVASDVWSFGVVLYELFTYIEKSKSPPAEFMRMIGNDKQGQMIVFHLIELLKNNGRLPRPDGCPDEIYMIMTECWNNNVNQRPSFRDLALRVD
Method in brief: (§2)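 Recombinant His- or GST-tagged kinase domains from baculovirus were assayed with poly(Glu-Tyr, 4:1) substrate and 10 μM ATP in Tris-HCl pH 7.5 with Mg2+/Mn2+. Kinase-Glo: 37° C for 60 minutes, residual ATP read by luminescence. IC50 from non-linear regression over eight concentrations, 1 nM to 20 μM.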

IGF1R tyrosine kinase = target: T2, IGF1R tyrosine kinase (Homo sapiens, UniProt P08069); assay: IGF1R tyrosine kinase assay (Kinase-Glo ATP depletion or PT66/PT100 AlphaScreen); settings: biochemical tyrosine kinase assay
T2 construct: 6×His- or GST-tagged kinase domain fragments of the corresponding RTKs expressed in baculovirus system; host or cells: baculovirus system
T2 sequence (P08069 999-1274 limits assumed): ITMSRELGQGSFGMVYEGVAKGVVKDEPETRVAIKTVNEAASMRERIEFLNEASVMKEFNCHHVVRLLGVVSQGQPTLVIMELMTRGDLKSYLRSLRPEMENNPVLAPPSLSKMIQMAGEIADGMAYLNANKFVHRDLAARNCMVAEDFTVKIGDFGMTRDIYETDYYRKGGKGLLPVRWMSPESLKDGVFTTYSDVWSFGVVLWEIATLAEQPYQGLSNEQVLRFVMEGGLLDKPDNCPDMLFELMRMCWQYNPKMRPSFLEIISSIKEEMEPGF
Method in brief: as §2

InsR = target: T3, InsR (Homo sapiens, UniProt P06213); assay: Tyrosine kinase assay (Kinase-Glo or AlphaScreen), InsR; settings: biochemical tyrosine kinase assay
T3 construct: 6×His- or GST-tagged kinase domain fragments of the corresponding RTKs expressed in baculovirus system; host or cells: baculovirus system
T3 sequence (P06213 1023-1298 limits assumed, species assumed): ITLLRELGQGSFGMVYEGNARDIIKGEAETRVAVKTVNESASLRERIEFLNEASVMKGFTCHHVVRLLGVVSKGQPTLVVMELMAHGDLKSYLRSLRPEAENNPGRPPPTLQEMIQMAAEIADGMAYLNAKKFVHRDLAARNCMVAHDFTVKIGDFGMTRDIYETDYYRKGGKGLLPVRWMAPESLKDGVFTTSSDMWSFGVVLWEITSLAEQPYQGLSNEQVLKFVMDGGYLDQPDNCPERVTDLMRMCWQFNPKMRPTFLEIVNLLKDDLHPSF
Method in brief: as §2

[3] = tested on: HEK293 (human normal embryonic kidney); assay: Cell proliferation inhibition, Cell Titer-Glo, HEK293; type: cell-based; settings: cell proliferation assay, HEK293 cells, read-out: HEK 293 IC50
Method: IGF1R and other tyrosine kinase inhibitors can inhibit the proliferation of certain cancer cell lines indicating their possible therapeutic utility for treating the corresponding cancer types. Cancer cell lines of interest and control normal lines, including CHO, HEK293, BA/F3, MM1, H929, COLO205, PC3, DU145, MCF7, Panc1, ACHN, Hep G2, H460, K562, TT, U87-G, CAOV-3, SK-MEL5, Karpas 299, are plated in white, clear-bottomed 384-well cell culture plates at 2500-5000 cells per well and supplied with dilutions of tested compounds After a desired period of time (typically 3 days), the number of viable cells is quantitated by using Cell Titer-Glo Luminescent Cell Viability Assay (Promega), a cell proliferation assay system based on detection of total amount of ATP present as a measure of cell metabolic activity. The plated cells are mixed with the Cell Titer-Glo developing reagent and counted in a luminescence multiwell plate reader according to the standard manufacturer's protocol to generate IC50 curves for cell proliferation inhibition.
as §1

TrkA = target: T4, TrkA (Homo sapiens, UniProt P04629); assay: Tyrosine kinase assay (Kinase-Glo or AlphaScreen), TrkA; settings: biochemical tyrosine kinase assay
T4 construct: 6×His- or GST-tagged kinase domain fragments of the corresponding RTKs expressed in baculovirus system; host or cells: baculovirus system
T4 sequence (P04629 510-781 limits assumed, species assumed): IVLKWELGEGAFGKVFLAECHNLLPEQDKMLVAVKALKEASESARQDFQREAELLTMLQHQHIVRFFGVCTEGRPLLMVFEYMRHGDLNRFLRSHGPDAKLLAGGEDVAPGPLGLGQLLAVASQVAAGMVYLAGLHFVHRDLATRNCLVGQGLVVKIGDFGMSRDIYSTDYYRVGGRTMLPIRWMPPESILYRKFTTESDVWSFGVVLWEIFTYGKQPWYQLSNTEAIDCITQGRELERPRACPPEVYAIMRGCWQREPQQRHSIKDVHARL
Method: To determine inhibition of several tyrosine kinases, such as IGF1R, InsR, Alk, TrkA and Jak2, kinase assays are conducted using either Kinase-Glo (Promega) or AlphaScreen (PerkinElmer) kinase assay platforms. The Kinase-Glo Luminescent Kinase Assay is a homogeneous method for measuring kinase activity by determining the amount of ATP remaining after a kinase reaction. The luminescent signal is proportional to the amount of ATP and inversely proportional to the amount of kinase activity. Tyrosine kinase PT66 AlphaScreen Assay is a high-sensitivity homogeneous, anti-phosphotyrosine antibody-mediated luminescent proximity method measuring, incorporation of phosphate in synthetic poly(Glu-Tyr) substrate. The kinase preparations used consist of purified recombinant, 6×His- or GST-tagged kinase domain fragments of the corresponding RTKs expressed in baculovirus system.
The IGF1R tyrosine kinase is assayed in Kinase-Glo ATP depletion assay using the synthetic polymer poly(Glu-Tyr, 4:1) (Sigma Chemicals) as a phosphoacceptor substrate. Each reaction mixture consists of a total volume of 10 μl and contains 40 ng of the enzyme, 5 μg of poly(Glu-Tyr), 10 μM of ATP and variable concentrations of test compounds. The mixtures also contain 50 mM Tris-HCl, pH 7.5; 5 mM MgCl2; 5 mM MnCl2; 2 mM DTT and 0.01% Tween 20. The reaction mixtures are incubated at 37° C. for 60 minutes and residual concentration of ATP in the mixture is determined by adding luciferase-containing Kinase-Glo (Promega) development reagent and counting luminescence levels using Fusion Universal Microplate Analyzer (PerkinElmer). Tested compounds are dissolved in dimethyl sulfoxide to a stock concentration of 10 mM and are typically evaluated in the assay at eight concentrations in 1 nM to 20 μM range, each in quadruplicate. […] IC50 values are derived by non-linear regression analysis using Prism 3.0 software (Graphpad Software). Other tyrosine kinases are assayed according to the same protocol after titrating amount of the enzyme to provide optimal signal-to-noise ratio and no more than 30% of total ATP consumption in the reaction conditions used.
The IGF1R tyrosine kinase is assayed in Phosphotyrosine (PT66 or PT 100) AlphaScreen chemiluminescent assay (PerkinElmer) according to the manufacturerer's recommendations. Each kinase reaction mixture consists of a total volume of 15 μl and contains 0.1-1 ng of the enzyme, 7 ng of biotinylated poly(Glu-Tyr) (Cis-Bio), 10 μM of ATP and variable concentrations of test compounds. The mixtures also contain 50 mM Tris-HCl, pH 7.5; 5 mM MgCl2; 5 mM MnCl2; 2 mM DTT and 0.01% Tween 20. The reaction mixtures are incubated at room temperature for 30 minutes. Ten (10) μl of the mixture of […] and donor beads (as supplied by the manufacturer) is then added to the reaction and the incubation is continued for an additional 60 minutes.

Alk = target: T5, Alk (Homo sapiens, UniProt Q9UM73); assay: Tyrosine kinase assay (Kinase-Glo or AlphaScreen), Alk; settings: biochemical tyrosine kinase assay
T5 construct: 6×His- or GST-tagged kinase domain fragments of the corresponding RTKs expressed in baculovirus system; host or cells: baculovirus system
T5 sequence (Q9UM73 1116-1392 limits assumed, species assumed): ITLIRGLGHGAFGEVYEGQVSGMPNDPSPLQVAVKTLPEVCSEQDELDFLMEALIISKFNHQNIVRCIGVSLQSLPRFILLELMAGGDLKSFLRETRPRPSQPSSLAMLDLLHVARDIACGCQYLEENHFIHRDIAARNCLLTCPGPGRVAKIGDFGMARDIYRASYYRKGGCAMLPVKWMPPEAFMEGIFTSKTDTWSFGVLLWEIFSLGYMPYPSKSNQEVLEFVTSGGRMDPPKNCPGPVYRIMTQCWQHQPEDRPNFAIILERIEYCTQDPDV
Method in brief: as §2

K562 = assay: Cell proliferation inhibition, Cell Titer-Glo, K562; type: cell-based; settings: Homo sapiens; cell proliferation assay, K562 cells
Method in brief: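 K562 cells were seeded at 2500-5000 cells per well in white, clear-bottomed 384-well culture plates and treated with dilutions of test compounds for typically 3 days. Viable cells were quantified with the Cell Titer-Glo Luminescent Cell Viability Assay (Promega), which measures total ATP, read on a luminescence plate reader to derive IC50 values for proliferation inhibition.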

H929 (multiple myeloma) = assay: Cell proliferation inhibition, Cell Titer-Glo, H929; type: cell-based; settings: Homo sapiens, NCI-H929; cell proliferation assay, H929 cells
Method in brief: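 Cells seeded at 2500-5000 per well with serially diluted compound for typically 3 days. Viable cells measured by ATP luminescence (Cell Titer-Glo); IC50 from proliferation-inhibition curves.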

SMILES	IC50 [1]	IC50 (MM1s)	IC50 [2]	IC50 (H929)	IC50 (KMS11)	IC50 (CPM2)	IC50 (UTMC2)	IC50 (MM1r)	IC50 (Jak2)	IC50 (IGF1R tyrosine kinase)	IC50 (InsR)	IC50 [3]	IC50 (TrkA)	IC50 (Alk)	IC50 (K562)	IC50 (H929 (multiple myeloma))
COc1ccc(OCC(=O)CNc2cc[nH]c(=O)c2-c2nc3cc4c(cc3[nH]2)C(=O)N(C2CCN(C)CC2)C4)c(Cl)c1 [drawing 843]	≥ 20000 nM	500 to 1000 nM	≥ 20000 nM	500 to 1000 nM	1000 to 5000 nM	1000 to 5000 nM	< 500 nM	1000 to 5000 nM								
CCc1cc2c(cc1OCC(=O)CNc1cc[nH]c(=O)c1-c1nc3cc4c(cc3[nH]1)C(=O)N(C1CCN(C)CC1)C4)OCO2 [drawing 842]	≥ 20000 nM	< 500 nM	≥ 20000 nM	500 to 1000 nM	1000 to 5000 nM	1000 to 5000 nM	< 500 nM	1000 to 5000 nM								
CN1CCC(N2Cc3cc4[nH]c(-c5c(NCC(=O)COc6ccccc6Br)cc[nH]c5=O)nc4cc3C2=O)CC1 [drawing 841]	≥ 20000 nM	< 500 nM	≥ 20000 nM	< 500 nM	1000 to 5000 nM	1000 to 5000 nM	< 500 nM	500 to 1000 nM								
Cc1ccc(OCC(=O)CNc2cc[nH]c(=O)c2-c2nc3cc4c(cc3[nH]2)CN(CCCN2CCCC2)C4=O)c(C)c1 [drawing 840]	≥ 20000 nM	1000 to 5000 nM	≥ 20000 nM	500 to 1000 nM	5000 to 20000 nM	5000 to 20000 nM	500 to 1000 nM	1000 to 5000 nM								
CN1CCC(N2Cc3cc4nc(-c5c(NC[C@@H](O)c6cccc(Cl)c6)cc[nH]c5=O)[nH]c4cc3C2=O)CC1 [compound 16]									500 to 5000 nM	< 500 nM	< 500 nM	5000 to 15000 nM	< 500 nM	< 500 nM	> 15000 nM	5000 to 15000 nM
Cc1ccc(OCC(=O)CNc2cc[nH]c(=O)c2-c2nc3cc4c(cc3[nH]2)CN(C2CCN(C)CC2)C4=O)c(C)c1 [drawing 838]	≥ 20000 nM	< 500 nM	≥ 20000 nM	< 500 nM	1000 to 5000 nM	1000 to 5000 nM	500 to 1000 nM	500 to 1000 nM								
